Assay results reported in PubChem BioAssay (NCI).
Several values for one entry are separate records, joined by “and”; a condition that tells them apart may be missing. Equal values may be shown once.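 The compound was tested at five concentrations on cells cultured in 96-well plates, with a 48-hour exposure period. Here, GI50 denotes the concentration required for 50% inhibition of growth. TGI denotes the concentration required for complete inhibition of growth.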

Columns and labels:
Assay in all cases: NCI tumour cell line growth inhibition, 48 h
[1] = test system: BT-549 breast
[2] = test system: HCT-15 colon
[3] = test system: HL-60(TB) leukemia
[4] = test system: HOP-62 NSCLC
[5] = test system: M14 melanoma
[6] = test system: MCF7 breast
[7] = test system: MOLT-4 leukemia
[8] = test system: OVCAR-4 ovarian
[9] = test system: RPMI-8226 leukemia
[10] = test system: SF-295 CNS
[11] = test system: SK-OV-3 ovarian
[12] = test system: U251 CNS

SMILES | TGI [1] | TGI [2] | TGI [3] | TGI [4] | TGI [5] | TGI [6] | TGI [7] | TGI [8] | TGI [9] | TGI [10] | TGI [11] | TGI [12] | GI50 [2] | GI50 [3] | GI50 [1]
CNC(=O)OCC1=C(COC(=O)NC)C(C)N(c2ccccc2)C1 (stereo not given) | > 100 µM | > 100 µM | 47 µM | > 100 µM | 65.8 µM | 58.3 µM | 71.1 µM | > 100 µM | 83 µM | > 100 µM | > 100 µM | > 100 µM | – | – | –
COC1C(OC(C)=O)CC(=O)OC(C)C/C=C/C=C\C(O)C(C)CC(CC=O)C1OC1OC(C)C(OC2CC(C)(O)C(OC(=O)CC(C)C)C(C)O2)C(N(C)C)C1O (stereo not given) | > 100 µM | > 100 µM | > 100 µM | > 100 µM | > 100 µM | > 100 µM | – | > 100 µM | > 100 µM | > 100 µM | > 100 µM | > 100 µM | 36.4 µM and > 100 µM | 36.2 µM and > 100 µM | –
COC(=O)C1SC[C@H]2C(=O)N(c3ccccc3)C(=O)N12 (stereo not given in full) | > 100 µM | > 100 µM | > 100 µM | > 100 µM | > 100 µM | > 100 µM | > 100 µM | > 100 µM | > 100 µM | > 100 µM | > 100 µM | > 100 µM | – | – | –
Cc1ccc(N2C3=C(CC4=C2CC(C)(C)CC4=O)C(=O)CC(C)(C)C3)cc1 | > 100 µM | > 100 µM | > 100 µM | > 100 µM | > 100 µM | > 100 µM | > 100 µM | > 100 µM | > 100 µM | > 100 µM | > 100 µM | > 100 µM | – | – | –
COc1ccc(NC(=S)Nc2c(C)n(C)n(-c3ccccc3)c2=O)cc1 | > 100 µM | > 100 µM | > 100 µM | > 100 µM | > 100 µM | > 100 µM | > 100 µM | – | > 100 µM | > 100 µM | > 100 µM | > 100 µM | – | – | –
CN(C)c1c(C2CC(O)C(CO)O2)c(=O)c1=O (stereo not given) | > 100 µM | > 100 µM | > 100 µM | > 100 µM | > 100 µM | > 100 µM | > 100 µM | > 100 µM | > 100 µM | > 100 µM | > 100 µM | > 100 µM | – | – | –
COC(=O)[C@]1(Cc2ccc3ccccc3c2)CCCCCCN1C(=O)c1ccccc1 | > 54 µM | > 47.1 µM | > 40.4 µM | > 46.5 µM | > 52.7 µM | > 49.1 µM | > 47.7 µM | 26 µM | 17.9 µM | > 44.5 µM | > 89.8 µM | > 46.1 µM | – | – | –
COc1ncc(C#CC(=O)c2ccccc2)c(OC)n1 | 5.33 µM | 3.18 µM | 4.68 µM | 42 µM | 10.5 µM | 1.96 µM | 2.38 µM | 12.9 µM | > 21.9 µM | 36 µM | 42.1 µM | 9.59 µM | – | – | –
ClCCc1ccccc1CC1=NCCc2ccccc21 | 97.9 µM | > 100 µM | > 100 µM | > 100 µM | 71.5 µM | > 100 µM | > 100 µM | > 100 µM | 45.9 µM | > 100 µM | > 100 µM | > 100 µM | – | – | –
COc1cc(C2SCC(=O)N2NC(=O)c2ccc(NC(C)=O)cc2OC)ccc1O (stereo not given) | > 100 µM | > 100 µM | > 100 µM | 36.7 µM | > 100 µM | > 100 µM | > 100 µM | > 100 µM | > 100 µM | 47 µM | 26.7 µM | – | – | – | –
CC1OC(OC2C[C@](O)(C(=O)CBr)Cc3c(O)c4c(c(O)c32)C(=O)c2ccccc2C4=O)C(F)C(O)C1O (stereo not given in full) | > 100 µM | 21.6 µM | 3.22 µM | 66 µM | 26.1 µM | > 100 µM | – | 97.9 µM | 17.7 µM | 27.5 µM | > 100 µM | > 74.7 µM | – | – | –
Cc1c(C#N)c(N)n(C2OC(CO)C(O)C(O)C2O)c(=S)c1C#N (stereo not given) | 68.6 µM and > 100 µM | > 100 µM | > 100 µM | > 100 µM | > 100 µM | > 100 µM | > 100 µM | > 100 µM | > 100 µM | > 100 µM | > 100 µM | > 100 µM | – | – | 18.5 µM and > 100 µM
CC1(C)/C(=N\Nc2ccc([N+](=O)[O-])cc2[N+](=O)[O-])C2CCC1C2 (stereo not given) | > 100 µM | > 100 µM | > 100 µM | > 100 µM | > 100 µM | > 100 µM | > 100 µM | > 100 µM | > 100 µM | 71.5 µM | > 100 µM | > 100 µM | – | – | –
